From PubChem BioAssay (NCI)
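Where inhibition never reached the appropriate level, the endpoint shown equals the highest concentration tested. Otherwise, values were interpolated linearly from a five-concentration, 48-hour dose response in 96-well plates. Abbreviation: GI50, concentration required for 50% inhibition of growth. TGI: total growth inhibition.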

Experiments:
Assay in all cases: NCI-60 cell line screen, 48 h
SK-OV-3 ovarian = system: SK-OV-3 ovarian
SR leukemia = system: SR leukemia
HL-60(TB) leukemia = system: HL-60(TB) leukemia
SF-295 CNS = system: SF-295 CNS
HT29 colon = system: HT29 colon
RXF 393 renal = system: RXF 393 renal
SF-268 CNS = system: SF-268 CNS
SW-620 colon = system: SW-620 colon
NCI-H23 lung = system: NCI-H23 lung
NCI-H226 lung = system: NCI-H226 lung
M14 melanoma = system: M14 melanoma
SNB-75 CNS = system: SNB-75 CNS
U251 CNS = system: U251 CNS
MALME-3M melanoma = system: MALME-3M melanoma
TK-10 renal = system: TK-10 renal
LOX IMVI melanoma = system: LOX IMVI melanoma
SK-MEL-28 melanoma = system: SK-MEL-28 melanoma
SF-539 CNS = system: SF-539 CNS
OVCAR-4 ovarian = system: OVCAR-4 ovarian
SK-MEL-2 melanoma = system: SK-MEL-2 melanoma
KM20L2 colon = system: KM20L2 colon
HCT-15 colon = system: HCT-15 colon
EKVX NSCLC = system: EKVX NSCLC
OVCAR-5 ovarian = system: OVCAR-5 ovarian
SK-MEL-5 melanoma = system: SK-MEL-5 melanoma
UACC-62 melanoma = system: UACC-62 melanoma
NCI-H522 lung = system: NCI-H522 lung
HCC-2998 colon = system: HCC-2998 colon
HCT-116 colon = system: HCT-116 colon
UO-31 renal = system: UO-31 renal
IGROV1 ovarian = system: IGROV1 ovarian
ACHN renal = system: ACHN renal
OVCAR-8 ovarian = system: OVCAR-8 ovarian
SNB-19 CNS = system: SNB-19 CNS
K-562 leukemia = system: K-562 leukemia
OVCAR-3 ovarian = system: OVCAR-3 ovarian
CAKI-1 renal = system: CAKI-1 renal
KM12 colon = system: KM12 colon
HOP-92 NSCLC = system: HOP-92 NSCLC
MOLT-4 leukemia = system: MOLT-4 leukemia
A549 NSCLC = system: A549 NSCLC
UACC-257 melanoma = system: UACC-257 melanoma

**Q.** For `O=C(N/N=C/c1cc(Cl)cc(Cl)c1[O-])c1ccccc1O.O=C(N/N=C/c1cc(Cl)cc(Cl)c1[O-])c1ccccc1O.[Zn+2]`, which TGI (SK-OV-3 ovarian) is on record?
**A.** 11.8 µM

**Q.** What about the TGI (SR leukemia) of the same molecule?
**A.** 1.55 µM

**Q.** And the TGI (HL-60(TB) leukemia)?
**A.** 0.715 µM

**Q.** And the TGI (SF-295 CNS)?
**A.** 5.21 µM

**Q.** What about the TGI (HT29 colon) of the same molecule?
**A.** 13.7 µM

**Q.** And the TGI (RXF 393 renal)?
**A.** 11.6 µM

**Q.** And the TGI (SF-268 CNS)?
**A.** 17.7 µM

**Q.** And the TGI (SW-620 colon)?
**A.** 20.9 µM

**Q.** And the GI50 (NCI-H23 lung)?
**A.** 0.56 µM

**Q.** What about the TGI (NCI-H23 lung) of the same molecule?
**A.** 11.2 µM

**Q.** And the TGI (NCI-H226 lung)?
**A.** 7.61 µM

**Q.** What about the TGI (M14 melanoma) of the same molecule?
**A.** 6.88 µM

**Q.** What about the TGI (SNB-75 CNS) of the same molecule?
**A.** 16.4 µM

**Q.** And the TGI (U251 CNS)?
**A.** 5.93 µM

**Q.** And the GI50 (MALME-3M melanoma)?
**A.** 1.37 µM

**Q.** And the TGI (MALME-3M melanoma)?
**A.** 8.56 µM

**Q.** And the TGI (TK-10 renal)?
**A.** 18.5 µM

**Q.** What about the TGI (LOX IMVI melanoma) of the same molecule?
**A.** 14.6 µM

**Q.** What about the TGI (SK-MEL-28 melanoma) of the same molecule?
**A.** 14.8 µM

**Q.** And the GI50 (SF-539 CNS)?
**A.** 0.852 µM

**Q.** What about the TGI (SF-539 CNS) of the same molecule?
**A.** 5.75 µM

**Q.** And the TGI (OVCAR-4 ovarian)?
**A.** 2.4 µM

**Q.** And the GI50 (SK-MEL-2 melanoma)?
**A.** 0.591 µM

**Q.** What about the TGI (SK-MEL-2 melanoma) of the same molecule?
**A.** 11.5 µM

**Q.** And the GI50 (KM20L2 colon)?
**A.** 2.05 µM

**Q.** And the TGI (KM20L2 colon)?
**A.** 5.17 µM

**Q.** And the TGI (HCT-15 colon)?
**A.** 15.6 µM

**Q.** And the GI50 (EKVX NSCLC)?
**A.** 0.68 µM

**Q.** What about the TGI (EKVX NSCLC) of the same molecule?
**A.** 9.88 µM

**Q.** And the TGI (OVCAR-5 ovarian)?
**A.** 14.6 µM

**Q.** What about the TGI (SK-MEL-5 melanoma) of the same molecule?
**A.** 2.94 µM

**Q.** What about the TGI (UACC-62 melanoma) of the same molecule?
**A.** 1.84 µM

**Q.** What about the TGI (NCI-H522 lung) of the same molecule?
**A.** 0.764 µM

**Q.** What about the TGI (HCC-2998 colon) of the same molecule?
**A.** 13.2 µM

**Q.** And the GI50 (HCT-116 colon)?
**A.** 0.337 µM

**Q.** What about the TGI (HCT-116 colon) of the same molecule?
**A.** 14.5 µM

**Q.** And the TGI (UO-31 renal)?
**A.** 10.6 µM

**Q.** And the TGI (IGROV1 ovarian)?
**A.** 6.82 µM

**Q.** What about the TGI (ACHN renal) of the same molecule?
**A.** 12.9 µM

**Q.** And the TGI (OVCAR-8 ovarian)?
**A.** 3.38 µM

**Q.** And the TGI (SNB-19 CNS)?
**A.** 15 µM

**Q.** And the TGI (K-562 leukemia)?
**A.** 33.4 µM

**Q.** What about the TGI (OVCAR-3 ovarian) of the same molecule?
**A.** 1.85 µM

**Q.** And the TGI (CAKI-1 renal)?
**A.** 8.45 µM

**Q.** What about the GI50 (KM12 colon) of the same molecule?
**A.** 0.956 µM

**Q.** What about the TGI (KM12 colon) of the same molecule?
**A.** 17.9 µM

**Q.** What about the GI50 (HOP-92 NSCLC) of the same molecule?
**A.** 0.363 µM

**Q.** What about the TGI (HOP-92 NSCLC) of the same molecule?
**A.** 4.98 µM

**Q.** And the GI50 (MOLT-4 leukemia)?
**A.** 0.0115 µM

**Q.** What about the TGI (MOLT-4 leukemia) of the same molecule?
**A.** 18 µM

**Q.** And the GI50 (A549 NSCLC)?
**A.** 0.527 µM

**Q.** What about the TGI (A549 NSCLC) of the same molecule?
**A.** 13.1 µM

**Q.** And the TGI (UACC-257 melanoma)?
**A.** 11.8 µM
